Counter-ions that a name gives are not always drawn.
How the values were obtained:
[1] = pH-stability profile at 55° C. of doxorubicin.HCl solutions in sterile water, 5% dextrose, 0.9% saline; format: physicochemical; conditions: sterile water, 55° C.
[2] = Shelf-life (t 90%) forecast of doxorubicin.HCl 2 mg/ml sterile water solution adjusted to pH 3.0; format: physicochemical; conditions: for Kobs × 10^3: observed
Method: The Arrhenius equation for the degradation process was calculated from the Kobs obtained from the different temperatures taken in account for the testing (table 11).
Applying the equation, the rate constants for the pseudo-first order reactions at 4° C., 8° C., 15° C. and 27° C. were calculated, together with the expected t90% at these temperatures.

[3] = sterile water pH 3.0, 15° C., Arrhenius
[4] = sterile water pH 3.0, 27° C., 8 days
[5] = sterile water pH 3.0, 27° C., 14 days
[6] = sterile water pH 3.0, 27° C., 28 days
[7] = sterile water pH 3.0, 27° C., 32 days
[8] = sterile water pH 3.0, 27° C., 60 days
[9] = sterile water pH 3.0, 27° C., 90 days
[10] = sterile water pH 3.0, 35° C., 4 days
[11] = sterile water pH 3.0, 35° C., 8 days
[12] = sterile water pH 3.0, 35° C., 14 days
[13] = sterile water pH 3.0, 35° C., 32 days
[14] = sterile water pH 3.0, 45° C., 4 days
[15] = sterile water pH 3.0, 45° C., 8 days
[16] = sterile water pH 3.0, 45° C., 28 days
[17] = sterile water pH 3.0, 55° C., 4 days
[18] = sterile water pH 3.0, 55° C., 32 days

Structure (SMILES): COc1cccc2c1C(=O)c1c(O)c3c(c(O)c1C2=O)C[C@@](O)(C(=O)CO)C[C@@H]3O[C@H]1C[C@H](N)[C@H](O)[C@H](C)O1 [Doxorubicin.HCl, doxorubicin hydrochloride]
- Doxorubicin.HCl % stability ([1]; pH 2.0 buffer, 16 hours): 82.6%
- Doxorubicin.HCl % stability ([1]; pH 2.0 buffer, 24 hours): 76.9%
- Doxorubicin.HCl % stability ([1]; pH 2.0 buffer, 48 hours): 56.6%
- Doxorubicin.HCl % stability ([1]; pH 2.0 buffer, 72 hours): 39.6%
- Doxorubicin.HCl % stability ([1]; pH 2.5 buffer, 0 hours): 100.0%
- Doxorubicin.HCl % stability ([1]; pH 2.5 buffer, 8 hours): 96.7%
- Doxorubicin.HCl % stability ([1]; pH 2.5 buffer, 16 hours): 92.1%
- Doxorubicin.HCl % stability ([1]; pH 2.5 buffer, 24 hours): 86.2%
- Doxorubicin.HCl % stability ([1]; pH 2.5 buffer, 48 hours): 78.2%
- Doxorubicin.HCl % stability ([1]; pH 3.0 buffer, 0 hours): 100.0%
- Doxorubicin.HCl % stability ([1]; pH 3.0 buffer, 8 hours): 97.8%
- Doxorubicin.HCl % stability ([1]; pH 3.0 buffer, 16 hours): 93.9%
- Doxorubicin.HCl % stability ([1]; pH 3.0 buffer, 24 hours): 91.4%
- Doxorubicin.HCl % stability ([1]; pH 3.0 buffer, 48 hours): 84.7%
- Doxorubicin.HCl % stability ([1]; pH 3.0 buffer, 72 hours): 76.1%
- Doxorubicin.HCl % stability ([1]; pH 3.0 buffer, 120 hours): 62.8%
- Doxorubicin.HCl % stability ([1]; pH 3.5 buffer, 0 hours): 100.0%
- Doxorubicin.HCl % stability ([1]; pH 3.5 buffer, 8 hours): 95.8%
- Doxorubicin.HCl % stability ([1]; pH 3.5 buffer, 16 hours): 92.7%
- Doxorubicin.HCl % stability ([1]; pH 3.5 buffer, 24 hours): 90.4%
- Doxorubicin.HCl % stability ([1]; pH 3.5 buffer, 48 hours): 81.1%
- Doxorubicin.HCl % stability ([1]; pH 3.5 buffer, 72 hours): 75.6%
- Doxorubicin.HCl % stability ([1]; pH 3.5 buffer, 120 hours): 61.0%
- Doxorubicin.HCl % stability ([1]; pH 4.0 buffer, 0 hours): 100.0%
- Doxorubicin.HCl % stability ([1]; pH 4.0 buffer, 8 hours): 88.0%
- Doxorubicin.HCl % stability ([1]; pH 4.0 buffer, 16 hours): 82.7%
- Doxorubicin.HCl % stability ([1]; pH 4.0 buffer, 24 hours): 76.8%
- Doxorubicin.HCl % stability ([1]; pH 4.0 buffer, 48 hours): 57.4%
- Doxorubicin.HCl % stability ([1]; pH 5.0 buffer, 0 hours): 100.0
- Doxorubicin.HCl % stability ([1]; pH 5.0 buffer, 8 hours): 90.3
- Doxorubicin.HCl % stability ([1]; pH 5.0 buffer, 16 hours): 83.6
- Doxorubicin.HCl % stability ([1]; pH 5.0 buffer, 24 hours): 74.9
- Doxorubicin.HCl % stability ([1]; pH 5.5 buffer, 0 hours): 100.0%
- Doxorubicin.HCl % stability ([1]; pH 5.5 buffer, 8 hours): 88.3%
- Doxorubicin.HCl % stability ([1]; pH 5.5 buffer, 16 hours): 69.7%
- Doxorubicin.HCl % stability ([1]; pH 5.5 buffer, 24 hours): 60.0%
- Doxorubicin.HCl % stability ([1]; pH 5.5 buffer, 48 hours): 44.1%
- commercially meaningful shelf-life (t90% forecasts) ([2]; 2 mg/ml pH 3.0 aqueous solution): only if the product is stored in a refrigerator
- K × 10^3 calculated ([2]; sterile water pH 3.0, 4° C., Arrhenius): 0.019 1/days
- K × 10^3 calculated ([2]; sterile water pH 3.0, 8° C., Arrhenius): 0.038 1/days
- K × 10^3 calculated [2, 3]: 0.130 1/days
- t90% [2, 3]: 810 days
- pH ([2]; sterile water pH 3.0, 27° C., 0 days): 3.00
- Doxorubicin.HCl assay [2, 4]: 1.993 mg/mL
- pH [2, 4]: 2.95
- Doxorubicin.HCl assay [2, 5]: 1.988 mg/mL
- pH [2, 5]: 2.94
- Doxorubicin.HCl assay [2, 6]: 1.941 mg/mL
- pH [2, 6]: 2.94
- Doxorubicin.HCl assay [2, 7]: 1.962 mg/mL
- pH [2, 7]: 2.95
- Doxorubicin.HCl assay [2, 8]: 1.908 mg/mL
- pH [2, 8]: 2.96
- Doxorubicin.HCl assay [2, 9]: 1.850 mg/mL
- pH [2, 9]: 2.93
- K × 10^3 calculated ([2]; sterile water pH 3.0, 27° C., Arrhenius): 0.918 1/days
- Kobs × 10^3 ([2]; sterile water pH 3.0, 27° C.): 0.850 1/days
- pH ([2]; sterile water pH 3.0, 35° C., 0 days): 3.00
- Doxorubicin.HCl assay [2, 10]: 1.985 mg/mL
- pH [2, 10]: 2.96
- Doxorubicin.HCl assay [2, 11]: 1.952 mg/mL
- pH [2, 11]: 2.98
- Doxorubicin.HCl assay [2, 12]: 1.889 mg/mL
- pH [2, 12]: 2.93
- pH ([2]; sterile water pH 3.0, 35° C., 28 days): 2.92
- Doxorubicin.HCl assay [2, 13]: 1.876 mg/mL
- pH [2, 13]: 2.92
- Kobs × 10^3 ([2]; sterile water pH 3.0, 35° C.): 3.506 1/days
- pH ([2]; sterile water pH 3.0, 45° C., 0 days): 3.00
- Doxorubicin.HCl assay [2, 14]: 1.919 mg/mL
- pH [2, 14]: 2.97
- Doxorubicin.HCl assay [2, 15]: 1.851 mg/mL
- pH [2, 15]: 2.95
- pH ([2]; sterile water pH 3.0, 45° C., 14 days): 2.85
- Doxorubicin.HCl assay [2, 16]: 1.393 mg/mL
- pH [2, 16]: 2.90
- pH ([2]; sterile water pH 3.0, 45° C., 32 days): 2.92
- Kobs × 10^3 ([2]; sterile water pH 3.0, 45° C.): 12.790 1/days
- pH ([2]; sterile water pH 3.0, 55° C., 0 days): 3.00
- Doxorubicin.HCl assay [2, 17]: 1.760 mg/mL
- pH [2, 17]: 2.94
- pH ([2]; sterile water pH 3.0, 55° C., 8 days): 2.90
- pH ([2]; sterile water pH 3.0, 55° C., 14 days): 2.80
- Doxorubicin.HCl assay [2, 18]: 0.730 mg/mL
- pH [2, 18]: 2.82
- Kobs × 10^3 ([2]; sterile water pH 3.0, 55° C.): 49.340 1/days

— patent publication US6632799B2, “Injectable ready-to-use solutions containing an antitumor anthracycline glycoside” (Pharmacia & Upjohn Company, priority 1985, dated 2003)
